Experimental data as given in patent US20190048321A1, “Macrophage Enrichment of Cancer Stem Cells” (UNIVERSITY OF SOUTH CAROLINA, priority 2017, published 2019).

Tests used:
[1] = tested on: MDA-MB-231 human breast cancer cells; test: 3D PEGDA hydrogel culture of MDA-MB-231 cancer cells alone treated with Paclitaxel (MDA+PTX); format: cell-based
Experimental: (§1) Polyethylene glycol was functionalized with acrylate end-groups by reaction with acryloyl chloride using well-established procedures to generate a photopolymerizable polyethylene glycol diacrylate (PEGDA). The PEGDA and a photoinitiator (4-(2-hydroxyethoxy)phenyl-(2-hydroxy-2-propyl) ketone (commercial name Irgacure-2959)) were dissolved in aqueous solution to generate a hydrogel precursor solution. Prior to cure, the hydrogel precursor solution was combined with MDA-MB-231 human breast cancer cells alone (MDA), with human spleen-derived macrophages alone (Mac) or with both (MDA+Mac).
(§2) To form the matrices, the cancer cells and/or macrophages were suspended in the PEGDA hydrogel precursor solution, the suspension was pipetted in a tissue culture plate as a thin film, and the film was photopolymerized with UV radiation to encapsulate the cells in the hydrogel matrix.
(§3) This co-culture system was also used to screen Paclitaxel (PTX) toxicity against CSCs. […] MDA cancer cells cultured alone with no PTX (MDA) grew by forming tumor spheres with mixed population of stem and differentiated cells and as shown the growing cells expressed CSC markers.

[2] = tested on: CSCs in MDA-MB-231 breast tumor cells; test: 3D PEGDA hydrogel co-culture of MDA-MB-231 cancer cells with macrophages treated with Paclitaxel (MDA+Mac/PTX); format: cell-based, human
Experimental: as §1, §2, §3

MDA-MB-231 cells = conditions: 2D tissue culture plates, previous studies; cited from earlier work

Q: Which results are given for `CC(=O)O[C@H]1C(=O)[C@@]2(C)[C@H]([C@H](OC(=O)c3ccccc3)[C@]3(O)C[C@H](OC(=O)[C@H](O)[C@@H](NC(=O)c4ccccc4)c4ccccc4)C(C)=C1C3(C)C)[C@]1(OC(C)=O)CO[C@@H]1C[C@@H]2O` [PTX, Paclitaxel]?
A: cell number ([1]; MDA cancer cells alone treated with PTX (MDA+PTX) (FIG. 4a)): increased somewhat; expression of CSC markers ([1]; MDA cancer cells alone treated with PTX (MDA+PTX) (FIG. 4b-d)): increased significantly; cell growth / cell content ([2]; MDA cancer cells with macrophages in 5 kPa PEGDA matrix, treated with PTX (FIG. 4a)): effective in halting cell growth and the cell content decreased; expression of CSC markers (CD44, ABCG2, EGFR) ([2]; MDA cancer cells with macrophages treated with PTX, with incubation (FIG. 4b-d)): sharply increased; effectiveness against CSCs ([2]; MDA+Mac/PTX co-culture screen, MDA-MB-231 breast tumor cells): ineffective against CSCs; effectiveness against MDA-MB-231 cells (MDA-MB-231 cells): effective
